Among the data in the supplement of paper PMC10307832 are relative viability values, retold here.

Assay in all cases: relative viability (nuclei count vs DMSO), 5 days (fraction); higher = more cells survive
Compound in assay [1]: Cc1ccc(C(=O)Nc2ccc(CN3CCN(C)CC3)c(C(F)(F)F)c2)cc1C#Cc1cnc2cccnn12 [Ponatinib] + N=C(N)NC(=N)NCCc1ccccc1 [Phenformin] (partner 250 µM)
A digest of the protocol:
(§1)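 The day after seeding in 1536-well plates, lung cancer cell lines were treated by pin tool with a single drug, or with a fixed anchor-drug dose together with five library-drug doses (not always all listed) in √10 steps. After 5 days, a combined fix-and-stain solution (final 0.05% Triton X-100, 1% formaldehyde, 1 ug/ml Hoechst) was added. Nuclei counted on 4× images gave relative viability as treated counts over vehicle counts, reported as the median of duplicate plates.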

Compound in assay [2]: Cc1ccc(Nc2nccc(N(C)c3ccc4c(C)n(C)nc4c3)n2)cc1S(N)(=O)=O [Pazopanib] + C[C@]1(O)C[C@@H](c2nc(-c3ccc4ccc(-c5ccccc5)nc4c3)c3c(N)nccn32)C1 [Linsitinib] (partner 1 µM)
A digest of the protocol:
as §1

Compound in assay [3]: Cc1ccc(C(=O)Nc2ccc(CN3CCN(C)CC3)c(C(F)(F)F)c2)cc1C#Cc1cnc2cccnn12 [Ponatinib] + Nc1ncn([C@H]2C[C@H](O)[C@@H](CO)O2)c(=O)n1 [Decitabine] (partner 2 µM)
A digest of the protocol:
as §1

Compound in assay [4]: Cc1ccc(C(=O)Nc2ccc(CN3CCN(C)CC3)c(C(F)(F)F)c2)cc1C#Cc1cnc2cccnn12 [Ponatinib] + CCNC(=O)c1noc(-c2cc(C(C)C)c(O)cc2O)c1-c1ccc(CN2CCOCC2)cc1 [Luminespib] (partner 0.01 µM)
A digest of the protocol: as §1

As for RERF-LC-KJ, the relative viability in assay [1] (first compound 0.002 µM) was 0.41; in assay [1] (first compound 0.006325 µM), 0.417; in assay [1] (first compound 0.06325 µM) it was 0.482; in assay [1] (first compound 0.2 µM) it was 0.426; in assay [2] (first compound 0.01 µM) it was 0.889; in assay [2] (first compound 0.03162 µM), 0.912. Besides, the relative viability in assay [2] (first compound 0.1 µM) was determined as 0.825; in assay [2] (first compound 0.3162 µM), 0.782; in assay [2] (first compound 1 µM) it was 0.912; in assay [3] (first compound 0.002 µM), 0.646; in assay [3] (first compound 0.006325 µM) it was 0.724; in assay [3] (first compound 0.06325 µM), 0.835. The relative viability was found to be 0.665 in assay [3] (first compound 0.2 µM); 1.17 in assay [4] (first compound 0.002 µM); 1.32 in assay [4] (first compound 0.006325 µM); 1.47 in assay [4] (first compound 0.06325 µM); 1.21 in assay [4] (first compound 0.2 µM).

Take EMC-BAC-2: the relative viability stood at 0.495 in assay [1] (first compound 0.002 µM); 0.449 in assay [1] (first compound 0.006325 µM); 0.508 in assay [1] (first compound 0.06325 µM); 0.487 in assay [1] (first compound 0.2 µM); 0.758 in assay [2] (first compound 0.01 µM); 0.855 in assay [2] (first compound 0.03162 µM). Besides, the relative viability in assay [2] (first compound 0.1 µM) is 0.864; in assay [2] (first compound 0.3162 µM), 0.84; in assay [2] (first compound 1 µM), 0.803; in assay [3] (first compound 0.002 µM) it was 0.927; in assay [3] (first compound 0.006325 µM), 0.899; in assay [3] (first compound 0.06325 µM), 1.04. For the same cell line, the relative viability in assay [3] (first compound 0.2 µM) was found to be 0.842; in assay [4] (first compound 0.002 µM), 1.06; in assay [4] (first compound 0.006325 µM) it was 1.15; in assay [4] (first compound 0.06325 µM), 1.28; in assay [4] (first compound 0.2 µM), 1.07.

LK-2: the relative viability is 0.52 in assay [1] (first compound 0.006325 µM); 0.239 in assay [1] (first compound 0.06325 µM); 0.21 in assay [1] (first compound 0.2 µM); 0.486 in assay [2] (first compound 0.01 µM); 0.564 in assay [2] (first compound 0.03162 µM); 0.475 in assay [2] (first compound 0.1 µM). Besides, the relative viability in assay [2] (first compound 0.3162 µM) was determined as 0.517; in assay [2] (first compound 1 µM), 0.524; in assay [3] (first compound 0.002 µM), 0.301; in assay [3] (first compound 0.006325 µM), 0.312; in assay [3] (first compound 0.06325 µM), 0.273; in assay [3] (first compound 0.2 µM), 0.274. Besides, the relative viability in assay [4] (first compound 0.006325 µM) amounted to 0.185; in assay [4] (first compound 0.06325 µM), 0.181; in assay [4] (first compound 0.2 µM) it was 0.158.

Turning to NCI-H2126, the relative viability in assay [1] (first compound 0.002 µM) was 0.509; in assay [1] (first compound 0.006325 µM), 0.544; in assay [1] (first compound 0.06325 µM), 0.558; in assay [1] (first compound 0.2 µM) it was 0.543; in assay [2] (first compound 0.01 µM), 0.563; in assay [2] (first compound 0.03162 µM) it was 0.734. For the same cell line, the relative viability in assay [2] (first compound 0.1 µM) was 0.749; in assay [2] (first compound 0.3162 µM), 0.677; in assay [2] (first compound 1 µM), 0.774; in assay [3] (first compound 0.002 µM), 0.587; in assay [3] (first compound 0.006325 µM), 0.585; in assay [3] (first compound 0.06325 µM) it was 0.667. In addition, the relative viability worked out at 0.545 in assay [3] (first compound 0.2 µM); 0.874 in assay [4] (first compound 0.002 µM); 0.955 in assay [4] (first compound 0.006325 µM); 1.04 in assay [4] (first compound 0.06325 µM); 0.873 in assay [4] (first compound 0.2 µM).

As to NCI-H322M, the relative viability in assay [1] (first compound 0.002 µM) stood at 0.746; in assay [1] (first compound 0.006325 µM), 0.734; in assay [1] (first compound 0.06325 µM), 0.799; in assay [1] (first compound 0.2 µM), 0.728; in assay [2] (first compound 0.01 µM), 0.772; in assay [2] (first compound 0.03162 µM), 1.06. Moreover, the relative viability is 0.899 in assay [2] (first compound 0.1 µM); 1.05 in assay [2] (first compound 0.3162 µM); 0.972 in assay [2] (first compound 1 µM); 0.681 in assay [3] (first compound 0.002 µM); 0.688 in assay [3] (first compound 0.006325 µM); 0.736 in assay [3] (first compound 0.06325 µM). The relative viability in assay [3] (first compound 0.2 µM) was determined as 0.629; in assay [4] (first compound 0.002 µM), 1; in assay [4] (first compound 0.006325 µM), 1; in assay [4] (first compound 0.06325 µM) it was 0.843; in assay [4] (first compound 0.2 µM), 0.716.
